Results from patent publication US8163702B2, “Treatment of melanoma” (SciClone Pharmaceuticals, Inc., priority 2006, dated 2012).
“And” between values parts separate entries of the source, which are not always exact repeats. Equal entries are not always repeated.

System: murine B16 melanoma
Experiment: Antitumor effect in murine B16 melanoma model, tumor size and tumor weight (Example 2)
Assay type: in vivo, C57BL/6 mice
Details: for Tumor volumes / Tumor measurements L / Tumor measurements W: Day 12; for IR (tumor volume inhibition rate) / Tumor Volume (Mean ± SD) / Tumor volumes (cm^3) on Day 15 / Tumor measurements (cm) on Day 15, L / Tumor measurements (cm) on Day 15, W: Day 15; for IR (inhibition rate of tumor weight) / Tumor Weight (Mean ± SD) / Tumor weights (g) on Day 17: Day 17; for Tumor volumes (cm^3) on Day 15: Length × Width × Width/2; for Tumor volumes (cm^3) on Day 15 / Tumor measurements (cm) on Day 15, L / Tumor measurements (cm) on Day 15, W / Tumor weights (g) on Day 17: individual animals F1-F5, M1-M5
Description: As per aseptic tissue culture procedures, one vial of B16 melanoma cells (supplied by Cell Culture Center of CAMS) was thawed and centrifuged at 1000 rpm, 20-25° C. for 5 minutes. The cell pellets were suspended in 0.1-0.5 mL normal saline (NS) and subcutaneously injected into the right axilla of each mouse (approximately 1×10^6 cells/mouse). When the tumor diameter was 1 cm approximately (measured by vernier caliper), the animals were euthanized with CO2 asphyxiation and the tumor was excised. Tumor cells were suspended in normal saline as previously described and the cell adaptation cycle was repeated once.
On Day 0, 1×10^6 B16 cells in a volume of 0.1 mL normal saline were subcutaneously injected into the right axillary area of the mouse. The day of tumor inoculation was defined as Day 0.
Dosing was initiated on Day 1.
Observations were recorded daily for mortality and moribundity. […] The tumors were excised, separated, and weighed.
Tumor volume was calculated using the following formula: Tumor Volume=Length×Width×Width/2 Tumor volume inhibition rate (IR) was calculated according to the formula: IR(TV)=(TVvehicle−TVdrug treated)/TVvehicle×100% TV is the tumor volume on the day of measurement.
The antitumor effect of the test article was also evaluated by tumor weight. The tumor weight of each mouse was recorded after euthanasia, and the inhibition rate of tumor weight was calculated according to the formula: IR(TW)=(Tumor weightvehicle−Tumor weightdrug treated)/Tumor weightvehicle×100%

[1] = SCV-07 0.01 mg/kg (Group 3), 0.01 mg/kg, female animals
[2] = SCV-07 0.01 mg/kg (Group 3), 0.01 mg/kg, male animals
[3] = SCV-07 0.01 mg/kg (Group 3), 0.01 mg/kg
[4] = SCV-07 0.1 mg/kg (Group 4), 0.1 mg/kg, female animals
[5] = SCV-07 0.1 mg/kg (Group 4), 0.1 mg/kg, male animals
[6] = SCV-07 0.1 mg/kg (Group 4), 0.1 mg/kg
[7] = SCV-07 1.0 mg/kg (Group 5), 1 mg/kg, female animals
[8] = SCV-07 1.0 mg/kg (Group 5), 1 mg/kg, male animals
[9] = SCV-07 1.0 mg/kg (Group 5), 1 mg/kg
[10] = SCV-07 5.0 mg/kg (Group 6), 5 mg/kg, female animals
[11] = SCV-07 5.0 mg/kg (Group 6), 5 mg/kg, male animals
[12] = SCV-07 5.0 mg/kg (Group 6), 5 mg/kg

Q: `N[C@H](CCC(=O)N[C@@H](Cc1c[nH]c2ccccc12)C(=O)O)C(=O)O` [SCV-07, γ-D-glutamyl-L-tryptophan] was tested. Which Tumor volumes (mouse M3, SCV-07 0.1 mg/kg sc) did it give?
A: Its Tumor volumes is 0.67 cm^3.

Q: And the “Tumor measurements L” value (mouse M3, SCV-07 1.0 mg/kg sc)?
A: Its value is 0.7 cm.

Q: What about the “Tumor measurements W” value (mouse M3, SCV-07 1.0 mg/kg sc) of the same molecule?
A: Its value is 0.7 cm.

Q: And the Tumor volumes (mouse M3, SCV-07 1.0 mg/kg sc)?
A: Its Tumor volumes is 0.17 cm^3.

Q: And the “Tumor measurements L” value (mouse M3, SCV-07 5.0 mg/kg sc)?
A: Its value is 0.9 cm.

Q: What about the “Tumor measurements W” value (mouse M3, SCV-07 5.0 mg/kg sc) of the same molecule?
A: Its value is 0.9 cm.

Q: And the Tumor volumes (mouse M3, SCV-07 5.0 mg/kg sc)?
A: The Tumor volumes was 0.36 cm^3.

Q: And the “Tumor measurements L” value (mouse M4, SCV-07 0.01 mg/kg sc)?
A: Its value is 1.0 cm.

Q: And the “Tumor measurements W” value (mouse M4, SCV-07 0.01 mg/kg sc)?
A: The value was 1.0 cm.

Q: And the Tumor volumes (mouse M4, SCV-07 0.01 mg/kg sc)?
A: Its Tumor volumes is 0.50 cm^3.

Q: And the “Tumor measurements L” value (mouse M4, SCV-07 0.1 mg/kg sc)?
A: Its value is 1.0 cm.

Q: What about the “Tumor measurements W” value (mouse M4, SCV-07 0.1 mg/kg sc) of the same molecule?
A: Its value is 0.9 cm.

Q: And the Tumor volumes (mouse M4, SCV-07 0.1 mg/kg sc)?
A: The Tumor volumes was 0.41 cm^3.

Q: And the “Tumor measurements L” value (mouse M4, SCV-07 1.0 mg/kg sc)?
A: Its value is 1.0 cm.

Q: What about the “Tumor measurements W” value (mouse M4, SCV-07 1.0 mg/kg sc) of the same molecule?
A: Its value is 0.7 cm.

Q: And the Tumor volumes (mouse M4, SCV-07 1.0 mg/kg sc)?
A: The Tumor volumes was 0.25 cm^3.

Q: What about the “Tumor measurements L” value (mouse M4, SCV-07 5.0 mg/kg sc) of the same molecule?
A: The value was 1.1 cm.

Q: What about the “Tumor measurements W” value (mouse M4, SCV-07 5.0 mg/kg sc) of the same molecule?
A: Its value is 1.1 cm.

Q: What about the Tumor volumes (mouse M4, SCV-07 5.0 mg/kg sc) of the same molecule?
A: Its Tumor volumes is 0.67 cm^3.

Q: What about the “Tumor measurements L” value (mouse M5, SCV-07 0.01 mg/kg sc) of the same molecule?
A: Its value is 1.1 cm.

Q: And the “Tumor measurements W” value (mouse M5, SCV-07 0.01 mg/kg sc)?
A: The value was 1.0 cm.

Q: What about the Tumor volumes (mouse M5, SCV-07 0.01 mg/kg sc) of the same molecule?
A: The Tumor volumes was 0.55 cm^3.

Q: What about the “Tumor measurements L” value (mouse M5, SCV-07 0.1 mg/kg sc) of the same molecule?
A: The value was 0.9 cm.

Q: And the “Tumor measurements W” value (mouse M5, SCV-07 0.1 mg/kg sc)?
A: Its value is 0.9 cm.

Q: And the Tumor volumes (mouse M5, SCV-07 0.1 mg/kg sc)?
A: The Tumor volumes was 0.36 cm^3.

Q: What about the “Tumor measurements L” value (mouse M5, SCV-07 1.0 mg/kg sc) of the same molecule?
A: The value was 0.8 cm.

Q: What about the “Tumor measurements W” value (mouse M5, SCV-07 1.0 mg/kg sc) of the same molecule?
A: Its value is 0.7 cm.

Q: What about the Tumor volumes (mouse M5, SCV-07 1.0 mg/kg sc) of the same molecule?
A: Its Tumor volumes is 0.20 cm^3.

Q: And the “IR (tumor volume inhibition rate)” value (SCV-07 0.01 mg/kg/day sc)?
A: The value was 15.3%.

Q: And the “Tumor Volume (Mean ± SD)” value (SCV-07 0.01 mg/kg/day sc)?
A: The value was 1.642 ± 0.549 cm^3.

Q: What about the “IR (tumor volume inhibition rate)” value (SCV-07 0.1 mg/kg/day sc) of the same molecule?
A: Its value is 7.9%.

Q: And the “Tumor Volume (Mean ± SD)” value (SCV-07 0.1 mg/kg/day sc)?
A: Its value is 1.786 ± 0.524 cm^3.

Q: And the “IR (tumor volume inhibition rate)” value (SCV-07 1.0 mg/kg/day sc)?
A: The value was 16.5%.

Q: And the “Tumor Volume (Mean ± SD)” value (SCV-07 1.0 mg/kg/day sc)?
A: The value was 1.617 ± 0.274 cm^3.

Q: What about the “IR (tumor volume inhibition rate)” value (SCV-07 5.0 mg/kg/day sc) of the same molecule?
A: Its value is 30.2%.

Q: What about the “Tumor Volume (Mean ± SD)” value (SCV-07 5.0 mg/kg/day sc) of the same molecule?
A: The value was 1.353 ± 0.591 cm^3.

Q: What about the “IR (inhibition rate of tumor weight)” value (SCV-07 0.01 mg/kg/day sc) of the same molecule?
A: Its value is 27.5%.

Q: And the “Tumor Weight (Mean ± SD)” value (SCV-07 0.01 mg/kg/day sc)?
A: The value was 2.77 ± 0.88 g.

Q: What about the “IR (inhibition rate of tumor weight)” value (SCV-07 0.1 mg/kg/day sc) of the same molecule?
A: Its value is 5.8%.

Q: And the “Tumor Weight (Mean ± SD)” value (SCV-07 0.1 mg/kg/day sc)?
A: The value was 3.59 ± 0.62 g.

Q: And the “IR (inhibition rate of tumor weight)” value (SCV-07 1.0 mg/kg/day sc)?
A: The value was 23.5%.

Q: And the “Tumor Weight (Mean ± SD)” value (SCV-07 1.0 mg/kg/day sc)?
A: Its value is 2.92 ± 0.55 g.

Q: What about the “IR (inhibition rate of tumor weight)” value (SCV-07 5.0 mg/kg/day sc) of the same molecule?
A: The value was 30.8%.

Q: And the “Tumor Weight (Mean ± SD)” value (SCV-07 5.0 mg/kg/day sc)?
A: The value was 2.64 ± 1.14 g.

Q: And the “Tumor volumes (cm^3) on Day 15” value [1]?
A: Its value is 1.37 cm^3 and 1.69 cm^3 (3×) and 1.47 cm^3.

Q: What about the “Tumor volumes (cm^3) on Day 15” value [2] of the same molecule?
A: The value was 1.57 cm^3 and 1.69 cm^3 and 3.18 cm^3 and 1.47 cm^3 and 2.05 cm^3.

Q: What about the “Tumor measurements (cm) on Day 15, L” value [3] of the same molecule?
A: The value was 1.5 cm and 1.8 cm (3×) and 1.4 cm (5×) and 1.3 cm.

Q: And the “Tumor measurements (cm) on Day 15, W” value [3]?
A: The value was 1.5 cm (3×) and 1.4 cm (4×) and 1.3 cm (2×) and 1.8 cm.

Q: What about the “Tumor weights (g) on Day 17” value [1] of the same molecule?
A: The value was 1.55 g and 2.04 g and 2.24 g and 3.71 g and 3.21 g.

Q: What about the “Tumor weights (g) on Day 17” value [2] of the same molecule?
A: The value was 2.77 g and 2.80 g and 4.57 g and 2.29 g and 2.50 g.

Q: What about the “Tumor volumes (cm^3) on Day 15” value [4] of the same molecule?
A: Its value is 1.18 cm^3 (2×) and 1.69 cm^3 (2×) and 1.80 cm^3.

Q: What about the “Tumor volumes (cm^3) on Day 15” value [5] of the same molecule?
A: The value was 1.69 cm^3 (2×) and 1.77 cm^3 and 1.44 cm^3 and 2.05 cm^3.

Q: And the “Tumor measurements (cm) on Day 15, L” value [6]?
A: The value was 1.5 cm (6×) and 2.2 cm and 1.6 cm (2×) and 1.4 cm.

Q: And the “Tumor measurements (cm) on Day 15, W” value [6]?
A: Its value is 1.4 cm (4×) and 1.7 cm and 1.6 cm and 1.5 cm (4×).

Q: And the “Tumor weights (g) on Day 17” value [4]?
A: The value was 2.46 g and 4.08 g and 4.03 g and 3.93 g and 3.52 g.

Q: And the “Tumor weights (g) on Day 17” value [5]?
A: The value was 3.10 g and 3.73 g and 4.47 g and 2.86 g and 3.74 g.

Q: What about the “Tumor volumes (cm^3) on Day 15” value [7] of the same molecule?
A: Its value is 1.10 cm^3 and 1.37 cm^3 and 1.80 cm^3 and 1.35 cm^3 and 1.57 cm^3.

Q: What about the “Tumor volumes (cm^3) on Day 15” value [8] of the same molecule?
A: Its value is 1.47 cm^3 (2×) and 2.30 cm^3 and 1.10 cm^3.

Q: And the “Tumor measurements (cm) on Day 15, L” value [9]?
A: Its value is 1.5 cm (3×) and 1.7 cm and 1.6 cm (2×) and 2 cm and 1.4 cm (2×) and 2.1 cm.

Q: And the “Tumor measurements (cm) on Day 15, W” value [9]?
A: Its value is 1.5 cm (4×) and 1.3 cm (5×) and 1.6 cm.

Q: And the “Tumor weights (g) on Day 17” value [7]?
A: The value was 2.69 g and 2.67 g and 4.06 g and 2.66 g and 3.25 g.

Q: What about the “Tumor weights (g) on Day 17” value [8] of the same molecule?
A: The value was 3.58 g and 2.89 g and 2.25 g and 2.55 g and 2.58 g.

Q: What about the “Tumor volumes (cm^3) on Day 15” value [10] of the same molecule?
A: The value was 1.91 cm^3 and 2.56 cm^3 and 1.69 cm^3 and 2.03 cm^3 and 1.57 cm^3.

Q: What about the “Tumor volumes (cm^3) on Day 15” value [11] of the same molecule?
A: Its value is 1.37 cm^3 and 2.05 cm^3 (2×) and 2.03 cm^3 and 2.14 cm^3.

Q: What about the “Tumor measurements (cm) on Day 15, L” value [12] of the same molecule?
A: Its value is 1.6 cm (3×) and 1.5 cm (2×) and 1.8 cm and 1.3 cm (2×) and 1.4 cm.

Q: And the “Tumor measurements (cm) on Day 15, W” value [12]?
A: Its value is 1.4 cm (4×) and 1.6 cm and 1.3 cm (3×) and 1.5 cm.

Q: What about the “Tumor weights (g) on Day 17” value [10] of the same molecule?
A: Its value is 1.94 g and 3.15 g and 2.97 g and 2.80 g and 2.85 g.

Q: And the “Tumor weights (g) on Day 17” value [11]?
A: Its value is 4.30 g and 0.15 g and 2.45 g and 3.78 g and 2.02 g.

Q: And the “B16 melanoma tumor growth” value (SCV-07 0.01, 1.0 and 5.0 mg/kg/day sc for 14 days)?
A: The value was “significantly reduced”.
